Results from ChEMBL document CHEMBL1201862, “PubChem BioAssay data set” (2004).
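Five compound concentrations were applied to cells in 96-well plates for 48 hours; endpoints were derived by simple linear interpolation of the resulting dose-response curve. GI50 marks 50% less growth.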 Calls of active or inactive are those of the source. No stated cut-off is given here; in the data, active = GI50 up to about 1.1 µM and inactive = higher.

Legend:
Assay in all cases: NCI-60 cell line screen, 48 h
NCI-H23 = system: NCI-H23
SR = system: SR
NCI-H460 = system: NCI-H460
UO-31 = system: UO-31
HCT-15 = system: HCT-15
HL-60 = system: HL-60
ACHN = system: ACHN
SF-268 = system: SF-268
CAKI-1 = system: CAKI-1
HT-29 = system: HT-29
HCC 2998 = system: HCC 2998
RXF 393 = system: RXF 393
MOLT-4 = system: MOLT-4
SK-MEL-5 = system: SK-MEL-5
UACC-62 = system: UACC-62
RPMI-8226 = system: RPMI-8226

Row | SMILES | GI50 (NCI-H23) | GI50 (SR) | GI50 (NCI-H460) | GI50 (UO-31) | GI50 (HCT-15) [µM] | GI50 (HL-60) | GI50 (ACHN) | GI50 (SF-268) | GI50 (CAKI-1) | GI50 (HT-29) | GI50 (HCC 2998) | GI50 (RXF 393) | GI50 (MOLT-4) | GI50 (SK-MEL-5) | GI50 (UACC-62) | GI50 (RPMI-8226)
1 | C/N=C1\CC2c3cc(OC)c(OC)cc3CCN2C2=C1C(=O)CC(C)(C)C2 (centres undefined) | > 100 µM (inactive) | > 100 µM (inactive) | > 100 µM (inactive) | > 100 µM (inactive) | > 10 | > 100 µM (inactive) | > 100 µM (inactive) | > 100 µM (inactive) | > 100 µM (inactive) | > 100 µM (inactive) | > 100 µM (inactive) | > 100 µM (inactive) | > 100 µM (inactive) | > 100 µM (inactive) | – | –
2 | CC1=NOC(=O)/C1=C/c1ccccc1O | > 100 µM (inactive) | > 100 µM (inactive) | > 100 µM (inactive) | > 100 µM (inactive) | > 100 | > 100 µM (inactive) | > 100 µM (inactive) | > 100 µM (inactive) | > 100 µM (inactive) | > 100 µM (inactive) | > 100 µM (inactive) | – | > 100 µM (inactive) | > 100 µM (inactive) | > 100 µM (inactive) | –
3 | Cc1ccn2c(c1)nc1nc3ccccc3nc12 | > 100 µM (inactive) | > 100 µM (inactive) | > 100 µM (inactive) | > 100 µM (inactive) | > 100 | > 100 µM (inactive) | 96.6 µM (inactive) | > 100 µM (inactive) | > 100 µM (inactive) | > 100 µM (inactive) | – | > 100 µM (inactive) | – | > 100 µM (inactive) | > 100 µM (inactive) | > 100 µM (inactive)
4 | NN/C(Cc1ccccc1)=N\NO | 57.4 µM (inactive) | – | > 100 µM (inactive) | – | 26.8 | > 100 µM (inactive) | 69.3 µM (inactive) | > 100 µM (inactive) | > 100 µM (inactive) | > 100 µM (inactive) | > 100 µM (inactive) | > 100 µM (inactive) | > 100 µM (inactive) | 53.7 µM (inactive) | 56.2 µM (inactive) | –
5 | O=c1/c(=C/c2cccc3ccccc23)sc2nc3ccccc3n12 | > 100 µM (inactive) | – | > 100 µM (inactive) | > 100 µM (inactive) | > 100 | > 100 µM (inactive) | > 100 µM (inactive) | > 100 µM (inactive) | > 100 µM (inactive) | > 100 µM (inactive) | > 100 µM (inactive) | > 100 µM (inactive) | – | > 100 µM (inactive) | > 100 µM (inactive) | –
6 | C=CCOC(=O)C1CCC(=O)N1C(=O)C(Cl)Cl (centres undefined) | > 100 µM (inactive) | – | > 100 µM (inactive) | > 100 µM (inactive) | > 100 | > 100 µM (inactive) | > 100 µM (inactive) | > 100 µM (inactive) | > 100 µM (inactive) | > 100 µM (inactive) | > 100 µM (inactive) | – | > 100 µM (inactive) | > 100 µM (inactive) | > 100 µM (inactive) | > 100 µM (inactive)
7 | C=CCc1cc(OC)c2c(c1)C(OC)CC(c1ccc(OC)c(OC)c1)O2 (centres undefined) | – | – | > 100 µM (inactive) | 42.3 µM (inactive) | 61.5 | 75 µM (inactive) | 71.9 µM (inactive) | 73.8 µM (inactive) | 94.8 µM (inactive) | > 100 µM (inactive) | > 100 µM (inactive) | – | 45.5 µM (inactive) | > 100 µM (inactive) | > 100 µM (inactive) | 38 µM (inactive)
8 | COc1c(C)cc2c(C(C)C)c(O)c(O)c(C=O)c2c1O | 18.3 µM (inactive) | – | 25.9 µM (inactive) | 31.3 µM (inactive) | 24.5 | 25.9 µM (inactive) | 29.6 µM (inactive) | 38.4 µM (inactive) | – | 13.3 µM (inactive) | 33.9 µM (inactive) | 21.6 µM (inactive) | 55.7 µM (inactive) | 16 µM (inactive) | 20.6 µM (inactive) | 37.9 µM (inactive)
